According to patent publication US7214512B2, “Genomic mammary Amyloid a sequence” (The Board of Regents of the University of Nebraska, priority 1999, dated 2007):
Values joined by “and” are separate entries in the source; they are usually repeats but may differ in a detail not shown here. Identical values can stand only once.

Assays:
MUC3 mRNA = MUC3 mRNA expression in intestinal epithelial cell culture assay; assay type: cell-based, human; details: for MUC3 mRNA/28s RNA ratio, Mean: peptide comparison, Control = 100.000; for MUC3 mRNA/28s RNA ratio, Mean / MUC3 mRNA stimulation versus control (in words): 30 minutes at 37° C. at 50 μg/ml; for MUC3 mRNA stimulation versus control (in words): p<0.008
Source text: Different mucin genes have been identified and to date, twelve human mucin genes have been identified. However, MUC3 mucin is the predominant intestinal mucin. It has previously been shown that the MUC3 mucins are effective in preventing the adherence of enteropathogenic Escherichia coli (EPEC) to intestinal epithelial cells. […] It is also well known that breast-feeding infants are far less susceptible to infectious diarrhea than formula fed infants. There are a number of theories why this is so, but it is hypothesized that milk-associated amyloid (colostrum SAA) may be an important inducer of MUC3 gene expression. Applicant has evaluated MUC3 mRNA expression using an in vitro human cell culture assay system. In this system, intestinal cells incubated with the N-terminal peptide sequence of colostrum SAA have shown increased MUC3 mRNA expression as compared to control cells grown without the addition of colostrum SAA to the cell culture medium. To further explore this finding, Applicant has evaluated the functional specificity of the N-terminal peptide sequence of colostrum SAA by evaluation of MUC3 expression in the same in vitro assay using colostrum SAA N-terminal peptide sequences that have been randomly scrambled and a colostrum SAA peptide sequence downstream of the N-terminal sequence. If the expression of MUC3 is increased then intestinal cells grown in the presence of colostrum SAA should have a greater capacity to inhibit adherence of bacterial pathogens. This will be studied using EPEC in an in vitro assay system pre-incubated with colostrum SAA in the cell culture medium. Enteropathogenic E. coli are non-invasive, non-toxin producing pathogens that have been recognized as a significant cause of diarrhea in third world countries and in day care settings in developed countries. Future studies will evaluate the benefits of colostrum SAA in in vivo studies as well as characterized animal equivalent to human EPEC. Colostrum associated SAA provides a means to naturally upregulate the innate protective mechanisms of the human intestine and would provide a novel form of therapy to a common problem that occurs all too often in the third world leads to death of infants and in the developed world countries and leads to significant morbidity and cost. Furthermore, prevention of intestinal infections for traveler's or those having to live in conditions with altered sanitary practices would also reduce morbidity. Thus, this therapy offers an effective, natural, non-drug/chemical therapy.
(§1) These four peptides were used in a cell culture assay designed to evaluate them for their properties of inducing mucin (MUC) mRNA production, either MUC3 or MUC2 according to the methods described by Mack et al. (Biochem. Biophys. Res. Commun. 199: 1012–1018, 1994 and Am J Physiol. Vol. 4, part 1, pg. G841–950, 1999).
N-Terminal Peptide Titration and MUC3 mRNA Expression. Intestinal epithelial cells, Mack et al. 1994, 1999, were exposed to the N-terminal 10 amino acid bovine colostrum-SAA peptide (SEQ ID NO:30) at various concentrations for 30 minutes incubation at […]. The cells were incubated an additional hour following replacement of the test medium with fresh medium without peptide and then the total cellular niRNA isolated and analyzed for MUC3 specific mRNA. […] The optimum concentration was 50 μg/ml medium (see FIG. 7).
MUC3 Stimulation. MUC3 stimulating activity of the N-terminal 10 amino acid bovine colostrum-SAA peptide was compared to the activity of the “Limited Scramble”, the “Total Scramble” and “C-Terminal peptides”. Optimum time and temperature of incubation and concentration of peptides was for 30 minutes at 37° C. at 50 μg/ml respectively.

MUC2 mRNA = MUC2 mRNA expression in intestinal epithelial cells cultured under conditions favoring MUC2; assay type: cell-based, human; details: for MUC2 mRNA/28s RNA ratio, Mean: peptide comparison, conditions optimized for MUC3 stimulation, Control = 100.000
Source text: as §1
MUC2 mRNA Stimulation. To address whether the N-Terminal 10 amino acid bovine colostrum-SAA peptide would stimulate mRNA synthesis for MUC2 production, intestinal epithelial cells were cultured under conditions favoring MUC2 expression rather than MUC3. All peptides were used at concentrations and conditions that were previously optimized for MUC3 stimulation. […] Additionally, conditions were changed to 2× the optimum MUC3 incubation time (1 hr). […] The evidence strongly indicates specificity of function in stimulating the production of a mucin produced mainly in the small intestine (MUC3) over one produced primarily in the large intestine (MUC2) (see FIG. 9).

[1] = test system: Bovine MAC-T mammary gland epithelial cells; test: Colostrum-SAA production by MAC-T cells stimulated with prolactin (ELISA); assay type: cell-based
Method: Bovine MAC-T mammary gland epithelial cells were obtained from ATCC (CRL-10274) and cultured according to recommended conditions (Turner, J D and Huynh H. Immortalized bovine mammary epithelial cell line. U.S. Pat. No. 5,227,301 dated Jul. 13, 1993). MAC-T cells were cultured on Dulbecco's Modified Eagles Media (DMEM) supplemented with 10% Fetal Calf Serum (FCS), 5 μg/ml insulin, 1 μg/ml hydrocortisone and fungizone. Cells were incubated at 37° C. with 5% CO2. For colostrum-SAA production the cells were seeded onto type I Collagen coated plates. After 14 hours of incubation, the cells were washed twice with Dulbecco's phosphate buffered saline (DPBS) and incubated in media (DMEM, 5 μg/ml insulin, 1 μg/ml hydrocortisone and 2.5% FCS) supplemented with prolactin from sheep pituitary gland (5 μg/ml) for the stimulation of colostrum-SAA production. Approximately one half of the media was replaced daily with fresh prolactin supplemented media. Standard ELISA for the quantitation of SAA (FIG. 3) was used to assay aliquots of the growth media collected on the different days for the presence of colostrum-SAA.
Cells were kept in culture for 41 days in media supplemented with prolactin. Levels of colostrum-SAA production reached a maximum of almost 3000 ng/ml.

[2] = Isoelectric focusing (IEF) and 2-D gel of SAA preparations; assay type: physicochemical; details: IEF on IPG strips, anti-SAA monoclonal antibody stain
Source text: Isoelectric Focusing (IEF) of SAA from serum, colostrum and cell culture fluid. The PROTEIN IEF Cell (BioRad) was used for the isoelectric focusing of the various SAA preparations. Ready Strip IPG Strips (BioRad Laboratories) with a pH range of 3–10 were used for the IEF. The second dimension (2-D) of the protein analysis was done by subjecting the IPG strips to 12% SDS-PAGE gel and electroblotting onto a PVDF membrane. The strips and blots were done in duplicate so that one of the blots could be stained with a protein stain, Coomassie Brilliant Blue, (CBB) and the other stained with the anti-SAA monoclonal antibody for the identification of the SAA protein isoforms. The samples also contained internal IEF standards (BioRad Laboratories) so that isoelectric point (pI) of each SAA isoforms could be determined. By comparing the antibody stained spots to the spots of the standards stained with CBB the apparent pI of the SAA isoforms could be determined. […]
The proteins subjected to the IEF and 2-D analysis were either affinity purified as described for the cell culture fluid or, in the case of the serum only semi-purified by hydrophobic chromatography. SAA is a highly hydrophobic molecule and will bind readily to Octyl Sepharose beads and then under the appropriate conditions can be eluted off the matrix. […]

With “DAAQRGPQQA (peptide of residues in C-terminal region of bovine SAA used as experimental control) [control 10 amino acid peptide, first 7 residues from the C-terminal region of bovine SAA, reference compound]” the “MUC3 mRNA/28s RNA ratio, Mean” value (MUC3 mRNA) was 111.333 and the “MUC2 mRNA/28s RNA ratio, Mean” value (MUC2 mRNA) was 67.500.

With “GKFAWEGMTL (randomized experimental control sequence) [Total Scramble, control peptide with the amino acids of the entire N-Terminal peptide in random order, reference compound]” the “MUC3 mRNA/28s RNA ratio, Mean” value (MUC3 mRNA) was 109.333 and the “MUC2 mRNA/28s RNA ratio, Mean” value (MUC2 mRNA) was 65.833.

In the case of “MWGLTKFEAG (limited scramble for experiment) [N-terminal peptide in which the four TFLK amino acids were scrambled in their order, reference compound]”, the “MUC3 mRNA stimulation versus control (in words)” value (MUC3 mRNA) is reported as “lack of stimulation”, the “MUC3 mRNA/28s RNA ratio, Mean” value (MUC3 mRNA) is reported as 95.000 and the “MUC2 mRNA/28s RNA ratio, Mean” value (MUC2 mRNA) is reported as 87.167.

For “MWGTFLKEAG (N-terminal region of bovine colostrum SAA) [10 amino acid N-terminal portion of mature bovine colostrum-SAA containing the conserved TFLK]”, the “time in which intestinal mucin genes are turned on” value (MUC3 mRNA) was no more than 30 min, the “MUC3 mRNA stimulation versus control (in words)” value (MUC3 mRNA) was “stimulated MUC3 mRNA statistically significantly over the control values” and the “optimum concentration for MUC3 mRNA stimulation” value (MUC3 mRNA; 30 minutes incubation) was 50 μg/ml medium. For the same molecule, the “MUC3 mRNA/28s RNA ratio, Mean” value (MUC3 mRNA) was 174.833, the “MUC2 mRNA increase over control (in words)” value (MUC2 mRNA; 100 and 500 μg/ml, incubation time 1 hr) was “None of these changes resulted in MUC2 mRNA increase over control values” and the “MUC2 mRNA stimulation versus control (in words)” value (MUC2 mRNA; concentrations and conditions optimized for MUC3 stimulation) was “the values were not significantly different”. For the same molecule, the “MUC2 mRNA/28s RNA ratio, Mean” value (MUC2 mRNA) was 101.167.

B1: prolactin: prolactin from sheep pituitary gland, used to stimulate colostrum-SAA production (protein, UniProt P01240 31-229, looked up)
Prolactin: TPVCPNGPGNCQVSLRDLFDRAVMVSHYIHNLSSEMFNEFDKRYAQGKGFITMALNSCHTSSLPTPEDKEQAQQTHHEVLMSLILGLLRSWNDPLYHLVTEVRGMKGVPDAILSRAIEIEEENKRLLEGMEMIFGQVIPGAKETEPYPVWSGLPSLQTKDEDARHSAFYNLLHCLRRDSSKIDTYLKLLNCRIIYNNNC
For B1, the “maximum level of colostrum-SAA production” value ([1]; prolactin 5 μg/ml in media, 41 days in culture) was roughly 3000 ng/mL and the “detection of colostrum-SAA in media (in words)” value ([1]; prolactin stimulation, eight days) was “Measurable quantities of colostrum-SAA could be detected by day two”.

B2: colostrum-SAA: unique isoform of serum amyloid A found in bovine colostrum and MAC-T cell culture fluid (protein)
chain: QRWGTFLKEAGQGAKDMWRAYQDMKEANYRGADKYFHARGNYDAARRGPGGAWAAKVISNARETIQGITDPLFKGMTRDQVREDSKADQFANEWGRSGKDPNHFRPAGLPDKY
For B2, the “apparent pI” value ([2]; listed as SAA purified from the culture fluid of MAC-T cells stimulated with LPS) was 9.4–9.6.

B3: SAA from the serum: SAA semi-purified from bovine serum, three isoforms staining with anti-SAA monoclonal antibody (protein)
chain: QWMSFFGEAYEGAKDMWRAYSDMREANYKGADKYFHARGNYDAAQRGPGGAWAAKVISDARENIQRFTDPLFKGTTSGQGQEDSRADQAANEWGRSGKDPNHFRPAGLPDKY
In the case of B3, the “apparent pI” value [2] is reported as ~7.0 and ~5.8 and ~5.5.
